One assay addresses T1, 3',5'-cyclic-AMP phosphodiesterase 4B (Homo sapiens, UniProt Q07343). Put plainly: Ability to inhibit the catalytic activity of human Phosphodiesterase 4B (PDE IVB).
T1 sequence (Q07343 whole entry): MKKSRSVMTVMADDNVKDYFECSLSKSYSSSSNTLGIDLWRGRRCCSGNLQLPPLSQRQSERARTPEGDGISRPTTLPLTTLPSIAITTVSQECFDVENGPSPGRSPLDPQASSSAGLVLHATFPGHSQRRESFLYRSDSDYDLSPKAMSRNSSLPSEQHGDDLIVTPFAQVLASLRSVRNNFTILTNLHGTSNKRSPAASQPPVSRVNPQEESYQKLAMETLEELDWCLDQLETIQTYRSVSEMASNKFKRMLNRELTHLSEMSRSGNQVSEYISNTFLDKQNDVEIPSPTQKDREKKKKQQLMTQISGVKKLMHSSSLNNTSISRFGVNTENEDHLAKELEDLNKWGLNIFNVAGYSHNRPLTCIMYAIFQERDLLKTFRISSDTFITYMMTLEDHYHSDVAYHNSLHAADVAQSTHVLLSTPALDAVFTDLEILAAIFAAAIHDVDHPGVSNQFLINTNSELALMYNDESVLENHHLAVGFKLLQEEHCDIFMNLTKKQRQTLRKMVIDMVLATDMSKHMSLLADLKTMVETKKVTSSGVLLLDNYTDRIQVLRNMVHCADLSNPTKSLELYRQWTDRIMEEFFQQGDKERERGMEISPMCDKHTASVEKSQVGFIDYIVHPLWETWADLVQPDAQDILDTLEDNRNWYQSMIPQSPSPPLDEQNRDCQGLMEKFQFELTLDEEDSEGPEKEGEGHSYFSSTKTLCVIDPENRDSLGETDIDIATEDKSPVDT
Usually Ki stands for the dissociation constant of the complex between target and ligand, obtained from inhibition or displacement. Take `COC(=O)N1C[C@@H]([N+](=O)[O-])[C@H](c2ccc(OC)c(OC3CCCC3)c2)C1`: the Ki was determined as 60 nM.

For the compound `COC(=O)[C@@H]1CN(C(=O)OC(C)(C)C)C[C@H]1c1ccc(OC)c(OC2CCCC2)c1`, the Ki was 30 nM. Against the preceding compound, the Ki is about 2-fold lower. In turn, `CCOC(=O)[C@@H]1CN(C(=O)OC)C[C@H]1c1ccc(OC)c(OC2CCCC2)c1` showed a Ki of 550 nM. On the same count and under the same terms, with `COC(=O)[C@@H]1CN(C(=O)OC)C[C@H]1c1ccc(OC)c(OC2CCCC2)c1` the figure was 160 nM; with `COC[C@@H]1CN(C(=O)OC(C)(C)C)C[C@H]1c1ccc(OC)c(OC2CCCC2)c1`, 80 nM. Take `COC(=O)[C@@H]1CN(C(N)=S)C[C@H]1c1ccc(OC)c(OC2CCCC2)c1`: the inhibition constant (Ki) came to 380 nM.

As to `COc1ccc([C@@H]2CN(C(=O)OCc3ccccc3)C[C@H]2NS(C)(=O)=O)cc1OC1CCCC1`, the Ki was determined as 1470 nM. Consider `COC(=O)N1C[C@@H](C(=O)c2ccccc2)[C@H](c2ccc(OC)c(OC3CCCC3)c2)C1`, for which the affinity, expressed as Ki, was 6030 nM. Consider `COC(=O)[C@@H]1CN(C(=O)OCc2ccccc2)C[C@H]1c1ccc(OC)c(OC2CCCC2)c1`, for which the inhibitory constant (Ki) stood at 50 nM.

Regarding `COC(=O)N1C[C@@H](C(N)=O)[C@H](c2ccc(OC)c(OC3CCCC3)c2)C1`, the Ki was found to be 1570 nM.

In the case of `COc1ccc([C@@H]2CN(C(=O)OC(C)(C)C)C[C@H]2CO)cc1OC1CCCC1`, the affinity corresponds to a Ki of 50 nM. Compound `COC(=O)[C@@H]1CN(C(=O)OC(C)(C)C)C[C@H]1c1ccc(OC)c(OCCCOc2ccccc2)c1` showed a Ki of 240 nM. On the same count and under the same terms, with `COC(=O)N1C[C@@H](NC(=O)OC(C)(C)C)[C@H](c2ccc(OC)c(OC3CCCC3)c2)C1` the figure was 14400 nM; with `COC(=O)N1C[C@@H](C#N)[C@H](c2ccc(OC)c(OC3CCCC3)c2)C1`, 80 nM.

For `COc1ccc([C@@H]2CN(C(=O)OCc3ccccc3)C[C@H]2NC(=O)OC(C)(C)C)cc1OC1CCCC1`, the Ki stood at 290 nM.

Regarding `COC(=O)N1C[C@@H](C(=O)OC(C)C)[C@H](c2ccc(OC)c(OC3CCCC3)c2)C1`, the Ki stood at 2290 nM. Turning to `COc1ccc([C@@H]2CN(C(=O)OC(C)(C)C)C[C@H]2C(N)=O)cc1OC1CCCC1`, the Ki turned out to be 190 nM. On the same count and under the same terms, as for `COc1ccc([C@@H]2CN(C(=O)OCc3ccccc3)C[C@H]2NS(=O)(=O)c2ccccc2)cc1OC1CCCC1`, the figure is 4420 nM; as for `COC(=O)N1C[C@@H](C(=O)OC(C)(C)C)[C@H](c2ccc(OC)c(OC3CCCC3)c2)C1`, 4630 nM. Same read-out and setting: with `COC(=O)N1C[C@@H](C(C)=O)[C@H](c2ccc(OC)c(OC3CCCC3)c2)C1` the figure was 30 nM; with `CCC(=O)[C@@H]1CN(C(=O)OC)C[C@H]1c1ccc(OC)c(OC2CCCC2)c1`, 350 nM. `COC(=O)[C@@H]1CN(C(N)=O)C[C@H]1c1ccc(OC)c(OC2CCCC2)c1` registered a Ki of 1480 nM. Compared with the last compound, the Ki is about 4.2-fold higher.

`COc1ccc([C@@H]2CN(C(=O)OC(C)(C)C)C[C@H]2NC(=O)OC(C)(C)C)cc1OC1CCCC1`: the inhibition constant Ki came out at 1570 nM. The Ki values of the last two compounds are within 1.5-fold of each other. The compound `COc1ccc([C@@H]2CN(C(=O)OC(C)(C)C)C[C@H]2C(=O)O)cc1OC1CCCC1` returned a Ki of 150 nM. `COC(=O)[C@@H]1CN(C(=O)OC(C)(C)C)C[C@H]1c1ccc(OC)c(OC)c1` yielded a Ki of 1200 nM.

Take `COC(=O)[C@@H]1CN(C(=O)OC(C)C)C[C@H]1c1ccc(OC)c(OC2CCCC2)c1`: the affinity corresponds to a Ki of 40 nM. Consider `COC(=O)[C@@H]1CN(C=O)C[C@H]1c1ccc(OC)c(OC2CCCC2)c1`, for which the affinity corresponds to a Ki of 810 nM. This Ki lies about 20-fold higher than the previous one.

`COC(=O)N1C[C@@H](C(=O)O)[C@H](c2ccc(OC)c(OC3CCCC3)c2)C1` yielded a Ki of 1880 nM. Compound `CCC(=O)N1C[C@@H](C(=O)OC)[C@H](c2ccc(OC)c(OC3CCCC3)c2)C1` registered a Ki of 1130 nM.

The next assay has as its target T1, 3',5'-cyclic-AMP phosphodiesterase 4B. Put plainly: Inhibition of rolipram binding to Phosphodiesterase 4B.
Broadly, the IC50 is the concentration that gives 50% inhibition. Higher therefore signals lower potency. Compound `COC(=O)N1C[C@@H](C(C)=O)[C@H](c2ccc(OC)c(OC3CCCC3)c2)C1` showed an IC50 of 320 nM.

Tested on in the next assay: not listed separately
Put plainly: Inhibition of TNF-alpha secretion from LPS-stimulated human monocytes. The format is functional.
Compound `COc1ccc(C2CNC(=O)C2)cc1OC1CCCC1` (configuration not stated) [ROLIPRAM] displayed an IC50 of 320 nM.

Take `COC(=O)N1C[C@@H](C(C)=O)[C@H](c2ccc(OC)c(OC3CCCC3)c2)C1`: the IC50 came out at 457 nM.

(Values after ChEMBL document CHEMBL1128806, “Phosphodiesterase type IV (PDE IV) inhibition. Synthesis and evaluation of a series of 1,3,4-trisubstituted pyrrolidines” (Bioorg Med Chem Lett, 1995).)
